Results from PMC11043318, “Quantification of biochemical PSA dynamics after radioligand therapy with [^177Lu]Lu-PSMA-I&T using a population pharmacokinetic/pharmacodynamic model” (EJNMMI Physics, 2024).
Where “and” joins values, the source holds several entries; their conditions need not be identical. Identical values can stand only once.

How the values were obtained:
[1] = cited from earlier work
Description: Comparison of rate constants for drug transfer between different compartments is hampered by absolute radioactivity amounts being relatively small in tumors compared to organs (due to volume differences between these compartments). […] Though differences are small, these might be caused by different treatment intervals (two-week instead of six-week interval) for most patients.

[2] = Population pharmacokinetic model from post-administration SPECT/CT data; assay type: in vivo, human
[3] = test system: serum prostate-specific antigen (PSA); assay: Tumor exposure (AUC) threshold for PSA response, linear regression; assay type: in vivo, human; settings: Bayesian estimated tumor AUC of first two cycles
Description: As an exploratory analysis, the final population PKPD model was used to assess a potential tumor exposure threshold required to achieve treatment response. The individually (Bayesian) estimated area under the curve (AUC) based on the first two treatment cycles was related to the change in PSA (%) for each patient. Since PSA is a continuous response measure and there is no defined moment to determine response, two endpoints for response were considered: nadir PSA and the last measured PSA value after the first two treatment cycles. A linear regression was performed to assess the relationship and was subsequently used to define tumor AUC thresholds required to achieve treatment response (≥ 50% decrease in PSA). Formal statistical testing was not possible, since individual (Bayesian) estimates of tumor exposure cannot be considered independent variables.

[4] = test system: serum prostate-specific antigen (PSA); assay: Population PKPD model of PSA dynamics after therapy; assay type: in vivo, human; settings: estimate (RSE%)
Description: Data from patients treated in our hospital with [^177Lu]Lu-PSMA-I&T between September 2019 and January 2023 were collected for population PK model development. This retrospective data collection was approved by the Institutional Review Board of the Netherlands Cancer Institute (IRBd21288). Baseline patient characteristics were collected, such as age, body weight, height and serum creatinine clearance. In addition, individual PSA concentrations were collected and used as input for the PD model. As pre-treatment PSA value, only the last observation prior to [^177Lu]Lu-PSMA-I&T treatment (< 6 weeks) was included in the analysis, to avoid taking into account PSA changes due to other previous treatments. For the same reason, PSA observations after the last [^177Lu]Lu-PSMA-I&T administration were collected up to start of a new treatment.
A sequential modelling approach was used for PKPD model development, where an additional compartment was considered to describe PSA concentrations over time. Baseline PSA concentrations were estimated as a typical population value with an estimated IIV on this population baseline value. […] For Edrug, a linear function, an Emax function and a sigmoid Emax model were evaluated (see Eqs. 9–11, respectively).9 Edrug=kD∗Ctumor 10 Edrug=EMAX∗Ctumor/EC50+Ctumor 11 Edrug=EMAX∗Ctumorγ/EC50γ+Ctumorγ where kD is a drug-induced effect, Ctumor is the estimated concentration in the tumor compartment (taking into account radioactive decay), EMAX is the maximal drug induced effect of [^177Lu]Lu-PSMA-I&T on PSA, EC50 is the [^177Lu]Lu-PSMA-I&T concentration at which half of the maximum drug-induced effect on PSA occurs and γ is a hill coefficient (that was both estimated and fixed during model development).
Therefore, a delay of the PD effect after administration of [^177Lu]Lu-PSMA-I&T (Edelayed) was evaluated using an effect compartment with a linear drug effect (Eq. 8) on the PSA compartment. This delayed effect was assessed both solely as well as additional to the direct effect (Edrug). […]

[5] = cited from earlier work; remark: listed apart in the source
Description: Though differences are small, these might be caused by different treatment intervals (two-week instead of six-week interval) for most patients.

[6] = fraction of tumor uptake rate in cycle 1, estimate (RSE%)
[7] = population PK model, covariate exponent, estimate (RSE%)
[8] = population PK model, estimate (RSE%)

O=C(O)CC[C@H](NC(=O)N[C@@H](CCCCNC(=O)[C@H](Cc1ccc2ccccc2c1)NC(=O)[C@H]1CC[C@H](CNC(=O)CN2CCN(CC(=O)O)CCN(CC(=O)O)CCN(CC(=O)O)CC2)CC1)C(=O)O)C(=O)O [[^177Lu]Lu-PSMA-617, metal not drawn]
Initial volume of distribution [1]: 22 L | Reported clearance [1]: 2.04 L/h | Excretion rate ([1]; population PK model): 0.288 h⁻¹

O=C([O-])CC[C@H](NC(=O)N[C@@H](CCCCNC(=O)CCCCCCC(=O)NCCCC[C@@H](NC(=O)[C@@H](Cc1ccccc1)NC(=O)[C@@H](Cc1ccc(O)c(I)c1)NC(=O)CC[C@H](C(=O)[O-])N1CCN(CC(=O)[O-])CCN(CC(=O)[O-])CCN(CC(=O)[O-])CC1)C(=O)[O-])C(=O)[O-])C(=O)[O-].[177Lu+3].[H+].[H+].[H+].[H+].[H+] [[^177Lu]Lu-PSMA-I&T]
Tumor uptake rate in cycle 2 compared to cycle 1 ([2]; all 76 patients): 73% and 73.1% | Tumor uptake rate in cycle 3 compared to cycle 1 ([2]; all 76 patients): 50% and 49.8% | Tumor uptake rate in cycle 4–7 compared to cycle 1 ([2]; all 76 patients): 44% and 43.6% | Salivary gland uptake in cycle three compared to cycle one ([2]; cycle effect tested on k12): 98.1% | Salivary gland uptake in cycle two compared to cycle one ([2]; cycle effect tested on k12): 84.6% | Estimated half-life, tumors ([2]; decay-corrected data): ~46 h | Cycle 2 on k14 (fractional change) [2, 6]: 0.731 (8.1%) | Cycle 3 on k14 (fractional change) [2, 6]: 0.498 (11.3%) | Cycle 4–7 on k14 (fractional change) [2, 6]: 0.436 (11.6%) | Increase of tumor uptake rate with a two-times higher tumor volume ([2]; from power covariate 1.08 on k14): 2.11 fold | Tumor uptake rate in cycle 2 compared to cycle 1, excluding '4 × 6' patients ([2]; only '2 × 2 – repeated after twelve weeks' scheme): 82.9% | k10 (renal excretion rate constant from central compartment) ([2]; population PK model, 76 mCRPC patients, ~7.4 GBq per cycle, SPECT/CT, estimate (RSE%)): 0.253 (5.2%) h^−1 | k12 (uptake rate central to salivary glands) ([2]; population PK model, 76 mCRPC patients, estimate (RSE%)): 0.0105 (9.2%) h^−1 | Renal clearance ([2]; population PK model, mCRPC patients): 2.61 L/h | Tumor volume on k12 (power covariate function) [2, 7]: 0.0910 (30.0%) | Tumor volume on k14 (power covariate function) [2, 7]: 1.08 (7.5%) | k13 (uptake rate central to kidneys) [2, 8]: 0.0321 (6.9%) h^−1 | k14 (uptake rate central to tumors) [2, 8]: 0.00967 (9.9%) h^−1 | k15 (central to remaining tissue) [2, 8]: 0.275 (6.8%) h^−1 | k21 (salivary glands to central) [2, 8]: 0.0629 (6.3%) h^−1 | k31 (kidneys to central) [2, 8]: 0.0625 (5.4%) h^−1 | k41 (tumors to central) [2, 8]: 0.0150 (3.4%) h^−1 | k51 (remaining tissue to central) [2, 8]: 0.0247 (6.5%) h^−1 | Estimated half-life, organs-at-risk ([2]; salivary glands and kidneys, decay-corrected data): approximately 11 h | BMAX compartment 2 (maximum binding capacity, salivary glands) ([2]; saturable uptake into salivary glands, estimate (RSE%)): 134 (15.5%) MBq | Threshold tumor AUC for ≥ 50% decrease in PSA, last measured PSA after first two cycles [3]: 1188 MBq·h/mL | Threshold tumor AUC for ≥ 50% decrease in PSA, nadir PSA as outcome [3]: 709.5 MBq·h/mL | Rate constant effect compartment (ke0) ([4]; first-order delay to effect compartment): 0.00128 (13.1%) h^−1 | Delayed drug-induced effect (kD, delay) ([4]; linear effect from effect compartment on PSA): 0.0000328 (17.4%) L·day^−1·MBq^−1 | Direct drug-induced effect (kD, direct) ([4]; linear effect of tumor concentration on PSA elimination): 0.00335 (40.1%) L·day^−1·GBq^−1 | Average tumor absorbed dose, fourth cycle relative to first cycle [5]: 68% | Average tumor absorbed dose, second cycle relative to first cycle [5]: 94% | Average tumor absorbed dose, third cycle relative to first cycle [5]: 77% | Average tumor absorbed dose, first cycle ([5]; n = 5–15 patients per cycle): 3.5 Gy/GBq | Average tumor absorbed dose, fourth cycle ([5]; n = 5–15 patients per cycle): 2.4 Gy/GBq | Average tumor absorbed dose, second cycle ([5]; n = 5–15 patients per cycle): 3.3 Gy/GBq | Average tumor absorbed dose, third cycle ([5]; n = 5–15 patients per cycle): 2.7 Gy/GBq
